According to paper PMC8004929, “Whole-Body Pharmacokinetics and Physiologically Based Pharmacokinetic Model for Monomethyl Auristatin E (MMAE)” (Journal of Clinical Medicine, 2021):
Square brackets hold non-standard residues; d marks the D form. Peptide text beside a SMILES is read from it. * marks the point of attachment. Dolaproine = CO[C@@H]([C@@H]1CCCN1)[C@@H](C)C(=O)O; Dil = CC[C@H](C)[C@H](NC)[C@@H](CC(=O)O)OC; X1 = C[C@@H](N*)[C@@H](O)c1ccccc1; NMeV = CN[C@H](C(=O)O)C(C)C

Assay: Whole-body biodistribution / PK study of MMAE in tumor-bearing mice (LC-MS/MS, NCA)
Format: in vivo
Conditions: 0.1 mg/kg i.v.; for AUC0−t: observed conc. by LC-MS/MS, 3 mice per time point; for KPadj: KP adjusted for percentage of cellular volume in total tissue volume
Text: Male athymic nude mice were purchased at the age of 6 weeks from Charles River (Wilmington, NC, USA). After acclimation to the new conditions for two weeks, mice were subcutaneously injected with MDA-MB-468 (about 10 million tumor cells) into the right dorsal flank. The in vivo study adhered to the Principles of Laboratory Animal Care (National Institutes of Health publication 85–23, revised 1985) and were approved by the University at Buffalo Institutional Animal Care and Use Committee (IACUC# PHC29035Y).
A total of 18 mice (6 weeks old, 26–35 g) bearing MDA-MB-468 xenografts were used for the biodistribution studies. Then, 0.1 mg/kg MMAE was injected into the mice via the penile vein, and terminal samples were collected at 5 min and 1, 6, 12, 24, and 168 h. Three mice were sacrificed at each time point. Whole blood, tissue, and tumor were harvested. The collected tissues included the heart, liver, lung, spleen, pancreas, kidney, skin, bone, muscle, fat, and brain. Whole blood samples in ethylenediaminetetraacetic acid (EDTA) pre-coated tubes were centrifuged at 2000× g for 20 min at 4 °C, and plasma was collected and stored at −20 °C for further analysis. Harvested tissue samples were blotted dry and immediately frozen in liquid nitrogen and stored at −80 °C until homogenization.
A detailed tissue homogenization procedure has been reported previously. Briefly, different volumes of RIPA buffer containing protease inhibitor were added into the weighted tissue samples to obtain different dilution factors in each tissue. The dilution factor was 5 for heart, liver, lung, spleen, pancreas, kidney, skin, and fat, 8 for bone and muscle, and 4 for brain samples. Tissue samples were homogenized using a BeadBug™ microtube homogenizer (Benchmark, USA) at the maximum speed for 15 s followed by a 30-s ice cool down, and repeated three times. Blood samples without dilution were directly homogenized for 30 s at maximum speed and were treated the same way as tissue samples.
Then, 500 µL acetonitrile containing 0.1% formic acid was added into 100 µL of plasma, tissue, or tumor homogenate samples and then spiked with 20 µL of IS solution (D8-MMAE 150 ng/mL). After vortexing and centrifugation at 15,000× g for 15 min at 4 °C, the supernatants were transferred to glass tubes and dried under nitrogen flow at 32 °C. The dried residuals were reconstituted with 60 µL of acetonitrile/water (95:5 v/v) containing 0.1% formic acid, gently vortexed, and immediately transferred into HPLC vials.
Standards and quality control samples (QCs) were prepared for plasma and each tissue matrix. Then, 250 µL of the control plasma or matrices were spiked with 20 µL of IS solution (D8-MMAE 150 ng/mL) and 10 µL of MMAE stock solution diluted with acetonitrile, and then, 500 µL of acetonitrile containing 0.1% formic acid was added. The final concentrations of standard were 0.5, 1, 10, 100, 200, and 500 ng/mL. QCs were prepared similarly for the final concentrations of […].
A Waters Acquity LC-MS/MS system was used with electrospray interphase and triple quadrupole mass spectrometer. An ACQUITY UPLC BEH Amide column (Waters, Milford, MA, USA) was used with 5 mM ammonium formate and 0.1% formic acid as the aqueous phase, and 0.1% formic acid and 1 mM ammonium formate were used as the organic phase. The gradient flow rate was 0.25 mL/min. The lower limit of quantification of MMAE was […] (or ng/g) for plasma, blood, tissues, and tumor.
Noncompartmental analysis (NCA) was conducted for plasma PK data. AUC computed from time 0 to the last observed concentration time (AUC0−t) was calculated using the linear/log trapezoidal method in WinNonlin (version 8.1, Pharsight, St. Louis, MO, USA). Blood to plasma ratios ( KP,BC ) and tissue partition coefficients ( KP,i ) were calculated using Equation (1), using AUC0−t values derived from the observed data. (1) KP,BC or KP,i=AUCi,0−t/AUCp,0−t, […]

[1] = NCA of plasma, tumor-bearing mice

Compound: CC[C@H](C)[C@@H]([C@@H](CC(=O)N1CCC[C@H]1[C@H](OC)[C@@H](C)C(=O)N[C@H](C)[C@@H](O)c1ccccc1)OC)N(C)C(=O)[C@@H](NC(=O)[C@@H](NC)C(C)C)C(C)C [MMAE, Monomethyl auristatin E] (H-[NMeV]V[Dil][Dolaproine]-X1)
- KP (tissue-to-plasma partition coefficient) (MDA-MB-468 tumor AUC0−t / plasma AUC0−t, tumor-bearing mice): 8.21
- AUC0−t (MDA-MB-468 tumor, tumor-bearing mice): 0.619 µM·h
- half-life [1]: 2.5 h
- systemic CL [1]: 60 mL/h
- volume of distribution (Vss) [1]: 42 mL
- plasma AUC from 0 to 12 h (NCA, tumor-bearing mice): 54.3 ng·h/mL
- plasma AUC from 0 to infinite (NCA, tumor-bearing mice): 54.5 ng·h/mL
- injected dose remaining in plasma (after 5 min, tumor-bearing mice): 0.3%
- blood-to plasma ratio (at 6 h, tumor-bearing mice): ≈ 20
- KP (partition coefficient) (blood (blood cell) AUC0−t / plasma AUC0−t, tumor-bearing mice): 5.46
- KPadj (blood, tumor-bearing mice): 5.46
- AUC0−t (blood, MDA-MB-468 tumor-bearing mice): 0.414 µM·h
- KPadj (bone, tumor-bearing mice): 1.89
- AUC0−t (bone, MDA-MB-468 tumor-bearing mice): 0.11 µM·h
- KP (tissue-to-plasma partition coefficient) (brain AUC0−t / plasma AUC0−t, tumor-bearing mice): 0.411
- KPadj (brain, tumor-bearing mice): 0.530
- AUC0−t (brain, MDA-MB-468 tumor-bearing mice): 0.0312 µM·h
- blood-to plasma ratio (early time-points (<30 min), tumor-bearing mice): about 6
- KP (tissue-to-plasma partition coefficient) (fat AUC0−t / plasma AUC0−t, tumor-bearing mice): 2.43
- KPadj (fat, tumor-bearing mice): 3.01
- AUC0−t (fat, MDA-MB-468 tumor-bearing mice): 0.184 µM·h
- decrease of MMAE concentration in the tumor (from 1 to 168 h, MDA-MB-468 tumor, mice): 50%
- KP (tissue-to-plasma partition coefficient) (heart AUC0−t / plasma AUC0−t, tumor-bearing mice): 17.9
- KPadj (heart, tumor-bearing mice): 22.8
- AUC0−t (heart, MDA-MB-468 tumor-bearing mice): 1.356 µM·h
- KP (tissue-to-plasma partition coefficient) (kidney AUC0−t / plasma AUC0−t, tumor-bearing mice): 31.6
- KPadj (kidney, tumor-bearing mice): 42.4
- AUC0−t (kidney, MDA-MB-468 tumor-bearing mice): 2.396 µM·h
- KP (tissue-to-plasma partition coefficient) (liver AUC0−t / plasma AUC0−t (apparent, not adjusted for CLint), tumor-bearing mice): 2.42
- KPadj (liver, tumor-bearing mice): 3.80
- AUC0−t (liver, MDA-MB-468 tumor-bearing mice): 0.176 µM·h
- exposure relative to plasma exposure, highly perfused tissues (lung > spleen > liver > heart, tumor-bearing mice): > 15 fold
- KP (tissue-to-plasma partition coefficient) (lung AUC0−t / plasma AUC0−t, tumor-bearing mice): 35.3
- KPadj (lung, tumor-bearing mice): 64.9
- AUC0−t (lung, MDA-MB-468 tumor-bearing mice): 2.679 µM·h
- KP (tissue-to-plasma partition coefficient) (muscle AUC0−t / plasma AUC0−t, tumor-bearing mice): 1.25
- KPadj (muscle, tumor-bearing mice): 1.51
- AUC0−t (muscle, MDA-MB-468 tumor-bearing mice): 0.0946 µM·h
- KP (tissue-to-plasma partition coefficient) (pancreas AUC0−t / plasma AUC0−t, tumor-bearing mice): 2.11
- KPadj (pancreas, tumor-bearing mice): 2.93
- AUC0−t (pancreas, MDA-MB-468 tumor-bearing mice): 0.16 µM·h
- AUC0−t (plasma, MDA-MB-468 tumor-bearing mice, linear/log trapezoidal): 0.0754 µM·h
- KP (tissue-to-plasma partition coefficient) (skin AUC0−t / plasma AUC0−t, tumor-bearing mice): 1.71
- KPadj (skin, tumor-bearing mice): 2.87
- AUC0−t (skin, MDA-MB-468 tumor-bearing mice): 0.13 µM·h
- KP (tissue-to-plasma partition coefficient) (spleen AUC0−t / plasma AUC0−t, tumor-bearing mice): 27.1
- KPadj (spleen, tumor-bearing mice): 47.2
- AUC0−t (spleen, MDA-MB-468 tumor-bearing mice): 2.056 µM·h
- KP in the liver after accounting for CLint, without adjustments for the fractional cellular volume (tumor-bearing mice): 25.3
- exposure relative to plasma exposure, fat, pancreas, skin, bone, and muscle (tumor-bearing mice): about 2 fold
- time up to which MMAE concentration in the liver was quantifiable (tumor-bearing mice, LLOQ 0.2 ng/g): 6 h
- Plasma concentration after 12 h (tumor-bearing mice, LLOQ 0.2 ng/mL, LC-MS/MS): below the limit of quantification
